Earlier results on one molecule are cited in patent US20070042953A1, “Antiepileptogenic complex of albumin with docosahexaenoate” (priority 2005, published 2007).

The structures appear in SMILES notation.

The subject of series [1] is rat brain cells or hippocampal slices.
Series [2] has as its system patients with chronic epilepsy. The following applies: nutritional supplementation, first 6 weeks.

As for `CCC=CCC=CCC=CCC=CCC=CC/C=C\CCC(=O)[O-].[Na+]` [DHA, cis-4,7,10,13,16,19-Docosahexaenoic acid, sodium salt], in series [1], the “epileptic activity in vitro” value is given as “attenuate epileptic activity”. Moreover, the seizure frequency result in series [2] is reported as “reduce seizure frequency in the first 6 weeks, but the effect was not sustained”.
